The source of these data is US20260345585A1, “DIETARY SUPPLEMENT COMPRISING A PREBIOTIC AND ANTIOXIDANT” (N.V. Nutricia, priority 2023, published 2026).

For assay [1], the system named is RAW264.7 macrophages. Description: Macrophage proliferation (CCK-8 viability of LPS-stimulated RAW264.7 cells). The class given is cell-based. How it is done: (§1) RAW264.7 macrophages were purchased from the National Collection of Authenticated Cell Cultures (Shanghai, China). The cell culture medium was supplemented with 10% fetal bovine serum and 100 U/mL penicillin and 100 μg/mL streptomycin in DMEM culture medium.
The viability of RAW264.7 cells was measured by Cell Counting Kit (CCK-8). Briefly, RAW264.7 cells were plated into 96-well plates at a density of 5×10^4 cells/well and incubated at 37 °C, 5% CO2 for 24 hours. Next the cells were exposed to 1 μg/mL lipopolysaccharides (LPS) for 24 hours to induce an inflammatory response by the RAW264.7 cells. Subsequently, the cells were exposed to different combinations of test ingredients for 24 hours. For the control, the cells were stimulated with LPS for 24 hours, followed by 24 hours with medium only. […] The absorbance was recorded on an automatic microplate reader with an […] of 450 nm. The higher the measured value, the higher the number of viable cells.
The macrophage proliferation is expressed as a percentage compared to the control (LPS only) which was set to 100%. […]
For this evaluation, the concentration at which each test ingredient provided an equivalent effect on macrophage proliferation was determined.
A combination of two compounds was considered as having synergy if both values, as calculated according to formulas 1a and 1b below, were higher than 1. […]

Assay [2] relates to RAW264.7 macrophages. In words: ROS production (DCFH-DA probe in LPS-stimulated RAW264.7 cells). The conditions noted are these: Mus musculus, 10 μg/mL, relative to control (LPS only) set to 100%. Type of assay: cell-based. The method, then:
as §1
The accumulation of ROS was assessed by the radical probe DCFH-DA. At the beginning, RAW264.7 cells were seeded in 6-well plate at 1×10^6 cells/well for 24 hours followed by a 24 hour exposure to LPS to induce an inflammatory response by the RAW264.7 cells. Subsequently, the cells were exposed to different combinations of test ingredients. For the control, the cells were stimulated with LPS for 24 hours, followed by 24 hour with medium only. All experiments were performed in triplicate. […] After incubation at 37 °C for 20 minutes in the dark, the cells were washed and lysed to release intracellular DCF and the fluorescence intensity was detected at 488 nm excitation and 525 nm emission using a microplate spectrofluorometer. The higher the measured value, the higher the level of ROS.
A combination of two compounds was considered as having synergy if both values, as calculated according to formulas 1a and 1b below, were higher than 1. […] If a combination of three compounds were to be evaluated, a similar logic is applied, but the assessed concentration in the combination is divided by 3 and three comparisons are made. […]

On to `O=C(O)c1cc(C(=O)O)c2c(n1)C(=O)C(=O)c1cc(C(=O)O)[nH]c1-2` [PQQ, Pyrroloquinoline quinone], for which the activity at 10 µg/mL in the assay with RAW264.7 macrophages [1] (Mus musculus, RAW264.7, 24 h, Example 2, 10 μg/mL, relative to control (LPS only) set to 100%) turned out to be 142 ± 14.1%; in the assay with RAW264.7 macrophages [2], 62.8 ± 5.3%. Moreover, in the assay on RAW264.7 macrophages [1] (Table 4, LPS-stimulated RAW264.7 cells), the “Concentration that provided an equivalent effect on macrophage proliferation” value amounted to 10 µg/mL.
